Experimental findings from patent US9145415B2, “Nitrogen-containing heterocyclic compound or salt thereof” (FUJIFILM Corporation, priority 2012, dated 2015) are described below.

Like-named read-outs stand apart in the source and are kept apart here.

In test [1] the target is T1, human FLT3 protein (FLT3 (WT)) (Homo sapiens, UniProt P36888).
T1 construct: human FLT3 protein (intracellular region, 564 to 993 aa); GST; purchased Carna Biosciences; host or cells: baculovirus expression system
T1 sequence (P36888 564-993): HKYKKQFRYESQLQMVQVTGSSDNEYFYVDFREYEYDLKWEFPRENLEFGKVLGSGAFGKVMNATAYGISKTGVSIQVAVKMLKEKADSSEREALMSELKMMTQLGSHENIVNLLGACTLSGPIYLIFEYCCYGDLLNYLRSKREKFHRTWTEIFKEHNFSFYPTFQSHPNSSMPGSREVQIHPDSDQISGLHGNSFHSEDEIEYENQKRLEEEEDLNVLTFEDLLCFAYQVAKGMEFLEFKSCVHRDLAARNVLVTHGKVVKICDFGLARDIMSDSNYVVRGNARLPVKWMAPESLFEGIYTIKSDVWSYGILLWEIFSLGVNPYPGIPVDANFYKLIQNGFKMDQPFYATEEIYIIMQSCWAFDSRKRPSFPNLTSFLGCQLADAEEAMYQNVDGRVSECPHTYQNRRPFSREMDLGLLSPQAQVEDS
As to the kind of experiment: FLT3 inhibition test (FLT3 enzyme inhibition, time-resolved fluorescence of substrate peptide phosphorylation). The format is biochemical. To be noted: read-out: FLT3 (WT) enzyme inhibition activity. The procedure: The FLT3 inhibition test was performed for the compounds of the present invention by the method described below.
A reaction mixture in a volume of 9 μL containing the FLT3 protein and a test compound of a predetermined concentration (1.2 μg of FLT3, 100 mM HEPES, 10 mM MgCl2, 25 mM NaCl, 0.01% BSA, 1 mM DTT, pH 7.5) was left standing at 25° C. for 15 minutes. […] (Toray Industries), and 3 μL (final concentration 50 μM) of ATP (Sigma-Aldrich) were added to the reaction mixture, and the mixture was shaken for 2 minutes, and then further left standing at 25° C. for 30 minutes to allow the enzymatic reaction.

Another test concerns MV4-11 cells. As to the kind of experiment: Leukemia cell proliferation inhibition test (ATPlite), MV4-11. To be noted: Homo sapiens, read-out: MV4-11 cell proliferation inhibition effect. The format is cell-based. The procedure: (§1) A leukemia cell proliferation inhibition test was performed for the compounds of the present invention by using the leukemia cell strains MV4-11 (ATCC Number, CRL-9591) and Molm-13 (DSMZ Number, ACC554).
(§2) The leukemia cell proliferation inhibition test was performed by the method described below.
(§3) For the purpose of measuring proliferation inhibition attained with a compound, the total cell count was quantified on the basis of the total cellular ATP concentration using the ATPlite (PerkinElmer) reagent utilizing firefly luciferase. The Molm-13 or MV4-11 cells were added to the RPMI medium containing penicillin and streptomycin (penn/strep) and 10% FBS at a density of 2×10^5 cells/ml, and 50 μL (10,000 cells) of the cell suspension was inoculated to each well of a 96-well plate (Corning).
(§4) A serially diluted solution of a compound or 0.1% DMSO (solvent control) in a volume of 50 μL was added to the cells, and then the cells were cultured for 72 hours under the standard cell proliferation conditions (37° C., 5% CO2) to allow proliferation of the cells. In order to measure the proliferation of the total cells, equal volume of the ATPlite reaction mixture was added to each well in accordance with the instructions attached to ATPlite, and then luminescence count of the well was measured (relative light unit, RLU).
(§5) The RLU signal observed with the DMSO solvent control after 72 hours of the culture was defined as a signal indicating 0% inhibition, and the GI50 value for the proliferation inhibition corresponds to a concentration of a compound that provides 50% inhibition based on the proliferation of the total cells contained in the DMSO solvent control. Each data point was obtained from samples in duplicate. The GI50 values were calculated by the non-linear regression fitting (Fit Model (205)) according to a sigmoid dose-reaction equation using the XLfit software.
On the technique in general: Cellular ATP, detected with luciferase, serves as a proxy for viable cell number.

For another test, the system named is Molm-13 cells. The test is described as follows: Leukemia cell proliferation inhibition test (ATPlite), Molm-13. The following applies: Homo sapiens, read-out: MOLM13 cell proliferation inhibition effect. The class given is cell-based. As for the experimental part:
as §1, §2, §3, §4, §5

Where [2] appears, read: GST-fused human FLT3 (564 to 993 aa), ATP 50 μM.
Setting [3] is: MV4-11, 72 h, MV4-11, 72 hours culture, ATPlite, GI50 per method.
The mark [4] stands for this setting: MOLM-13, 72 h, Molm-13, 72 hours culture, ATPlite, GI50 per method.

In the case of `CCCNc1nc(Nc2ccc(C#N)cc2)ncc1C#CCCCNC(=O)[C@@H]1C[C@H](O)CN1C(=O)/C=C/CN(C)C` [Compound 7-69], the IC50 (in test [1] (setting [2]); with MV4-11 cells (setting [3]); in the test with Molm-13 cells (setting [4])) was under 10 nM each time.

`CCCNc1nc(NCCc2ccncc2)ncc1C(=O)NCCCNC(=O)CNC(=O)/C=C/CN(C)C` [Compound 2-24]: the IC50 in test [1] (setting [2]) was under 10 nM; with MV4-11 cells (setting [3]) it was 10 to 100 nM; with Molm-13 cells (setting [4]), 10 to 100 nM.

Turning to `CCCNc1nc(Nc2ccc(-n3nccn3)cc2)ncc1C#CCCCNC(=O)[C@H](C)N(C)C(=O)/C=C/CN(C)C` [Compound 22-16], the IC50 in test [1] (FLT3 (WT)) was in the range of 10 to 100 nM; with MV4-11 cells (MV4-11, MV4-11 cell), 10 to 100 nM; in the test with Molm-13 cells (MOLM-13, MOLM13 cell) it was 10 to 100 nM.

For the compound `CCCNc1nc(Nc2ccc(OC)nc2)ncc1C#CCCCNC(=O)[C@H](C)N(C)C(=O)/C=C/CN(C)C` [Compound 7-23], the IC50 in test [1] (setting [2]) was under 10 nM; with MV4-11 cells (setting [3]) it was under 10 nM; in the test with Molm-13 cells (setting [4]) it was 10 to 100 nM.

Regarding `C[C@@H](C(=O)NCCCC#Cc1cnc(Nc2ccc(C#N)cc2)nc1Nc1ccc(F)cc1)N(C)C(=O)/C=C/CN(C)C` [Compound 10-2, (S,E)-N-(1--((5-(2-((4-cyanophenyl)amino)-4-((4-fluorophenyl)amino)pyrimidin-5-yl)-4-pentyn-1-yl)amino)-1-oxopropan-2-yl)-4-(dimethylamino)-N-methyl-2-butenamide], the IC50 (in test [1] (setting [2]); in the test on MV4-11 cells (setting [3]); in the test with Molm-13 cells (setting [4])) was under 10 nM throughout.

In the case of `CCCN(C)c1nc(Nc2ccc(C(=O)NC3CC3)cc2)ncc1C#CCCCNC(=O)[C@H](C)N(C)C(=O)/C=C/CN(C)C` [Compound 9-8], the IC50 in test [1] (setting [2]) is under 10 nM; in the test on MV4-11 cells (setting [3]), under 10 nM; in the test with Molm-13 cells (setting [4]) it was 10 to 100 nM.

Turning to `CCCNc1nc(Nc2ccc(C#N)cc2)ncc1C#CCCCNC(=O)CN(C)C(=O)/C=C/CN(C)C` [Compound 7-9, (E)-N-(2-((5-(2-((4-Cyanophenyl)amino)-4-(propylamino)pyrimidin-5-yl)-4-pentyn-1-yl)amino)-2-oxoethyl)-4-(dimethylamino)-N-methyl-2-butenamide], the IC50 (in test [1] (setting [2]); in the test with MV4-11 cells (setting [3]); in the test on Molm-13 cells (setting [4])) was under 10 nM each time.

Consider `C[C@@H](C(=O)N[C@H]1C[C@@H](C#Cc2cnc(Nc3ccc(F)cc3)nc2NC2CC2)C1)N(C)C(=O)/C=C/CN(C)C` (relative stereo) [Compound 15-9, (E)-N—((S)-1-(((1S*,3R*)-3-((4-(Cyclopropylamino)-2-((4-fluorophenyl)amino)pyrimidin-5-yl)ethynyl)cyclobutyl)amino)-1-oxopropan-2-yl)-4-(dimethylamino)-N-methyl-2-butenamide], for which the IC50 (in test [1] (setting [2]); in the test with MV4-11 cells (setting [3]); with Molm-13 cells (setting [4])) was under 10 nM throughout.

For the compound `CCCNc1nc(Nc2ccc(C(N)=O)cc2)ncc1C(=O)Nc1cccc(NC(CNC(=O)/C=C/CN(C)C)C(F)(F)F)c1` (stereo not drawn) [Compound 3-17], the IC50 in test [1] (setting [2]) is under 10 nM; in the test on MV4-11 cells (setting [3]) it was 100 to 1000 nM; in the test on Molm-13 cells (setting [4]), over 1000 nM.

For the compound `CCCNc1nc(Nc2cnc3[nH]nc(OC)c3c2)ncc1C#CCCCNC(=O)[C@@H]1CCCN1C(=O)/C=C/CN(C)C` [Compound 22-57, (S,E)-1-(4-(Dimethylamino)-2-butenoyl)-N-(5-(2-((3-methoxy-1H-pyrazolo[3,4-b]pyridin-5-yl)amino)-4-(propylamino)pyrimidin-5-yl)-4-pentyn-1-yl)pyrrolidine-2-carboxamide], the IC50 in test [1] (FLT3 (WT)) was under 10 nM; in the test on MV4-11 cells (MV4-11, MV4-11 cell), under 10 nM; with Molm-13 cells (MOLM-13, MOLM13 cell), under 10 nM.

For the compound `C[C@@H](C(=O)NCCCC#Cc1cnc(Nc2ccnc(F)c2)nc1N1CCCC1)N(C)C(=O)/C=C/CN(C)C` [Compound 9-12, (S,E)-4-(Dimethylamino)-N-(1-((5-(2-((2-fluoropyridin-4-yl)amino)-4-(pyrrolidin-1-yl)pyrimidin-5-yl)-4-pentyn-1-yl)amino)-1-oxopropan-2-yl)-N-methyl-2-butenamide], the IC50 (in test [1] (setting [2]); with MV4-11 cells (setting [3]); in the test on Molm-13 cells (setting [4])) was under 10 nM in each case.

Regarding `CCCNc1cc(Nc2ccc(C#N)cc2)ncc1C#CCCCNC(=O)[C@H](C)N(C)C(=O)/C=C/CN(C)C` [Compound 18-1, (S,E)-N-(1-((5-(6-((4-cyanophenyl)amino)-4-(propylamino)pyridin-3-yl)-4-pentyn-1-yl)amino)-1-oxopropan-2-yl)-4-(dimethylamino)-N-methyl-2-butenamide], the IC50 in test [1] (setting [2]) was under 10 nM; in the test with MV4-11 cells (setting [3]), 10 to 100 nM; in the test on Molm-13 cells (setting [4]), 10 to 100 nM.

As for `CCCNc1nc(Nc2ccc(C(N)=O)cc2)ncc1C(=O)Nc1cccc(NC(=O)[C@H](C)N(C)C(=O)/C=C/CNCC(F)(F)F)c1` [Compound 4-13], the IC50 in test [1] (setting [2]) was under 10 nM; in the test with MV4-11 cells (setting [3]), 10 to 100 nM; in the test on Molm-13 cells (setting [4]) it was 10 to 100 nM.

As to `CNc1nc(Nc2ccc(F)cc2)ncc1C#C[C@H]1C[C@@H](NC(=O)[C@H](C)N(C)C(=O)/C=C/CN(C)C)C1` [Compound 13-19, (E)-4-(Dimethylamino)-N—((S)-1-(((1S,3R)-3-((2-((4-fluorophenyl)amino)-4-(methylamino)pyrimidin-5-yl)ethynyl)cyclobutyl)amino)-1-oxopropan-2-yl)-N-methyl-2-butenamide], the IC50 (in test [1] (setting [2]); in the test with MV4-11 cells (setting [3]); in the test on Molm-13 cells (setting [4])) was under 10 nM throughout.

In the case of `CCCNc1nc(NCCc2ccncc2)ncc1C(=O)Nc1cccc(NC(=O)CCNC(=O)/C=C/CN(C)C)c1` [Compound 2-10], the IC50 was under 10 nM in test [1] (setting [2]), 100 to 1000 nM in the test with MV4-11 cells (setting [3]) and 100 to 1000 nM in the test on Molm-13 cells (setting [4]).

Turning to `CCCNc1nc(Nc2ccc(C(N)=O)cc2)ncc1C(=O)Nc1cccc(NC2CCCN(C(=O)/C=C/CN(C)C)C2)c1` (stereo not drawn) [Compound 3-19], the IC50 in test [1] (setting [2]) was under 10 nM; in the test on MV4-11 cells (setting [3]) it was 10 to 100 nM; in the test on Molm-13 cells (setting [4]), 100 to 1000 nM.

Take `CCCNc1nc(Nc2ccc3c(c2)c(OC)nn3C)ncc1C#CCCCNC(=O)[C@@H]1CCCN1C(=O)/C=C/CN(C)C` [Compound 22-30]: the IC50 in test [1] (FLT3 (WT)) was under 10 nM; in the test on MV4-11 cells (MV4-11, MV4-11 cell) it was under 10 nM; with Molm-13 cells (MOLM-13, MOLM13 cell), under 10 nM.

Turning to `COc1ccc(Nc2nc(Nc3ccc(F)cc3)ncc2C#CCCCNC(=O)CN(C)C(=O)/C=C/CN(C)C)cc1` [Compound 10-19], the IC50 (in test [1] (setting [2]); in the test with MV4-11 cells (setting [3]); in the test with Molm-13 cells (setting [4])) was under 10 nM each time.

Take `CCCNc1nc(Nc2ccc3ncccc3c2)ncc1C#CCCCNC(=O)[C@H](C)N(C)C(=O)/C=C/CN(C)C` [Compound 22-2]: the IC50 in test [1] (FLT3 (WT)) was under 10 nM; in the test with MV4-11 cells (MV4-11, MV4-11 cell), under 10 nM; in the test with Molm-13 cells (MOLM-13, MOLM13 cell), under 10 nM.

For `C[C@@H](C(=O)NCCCC#Cc1cnc(Nc2ccc(C#N)cc2)nc1N1CCC(F)CC1)N(C)C(=O)/C=C/CN(C)C` [Compound 10-41], the IC50 (in test [1] (setting [2]); with MV4-11 cells (setting [3]); in the test on Molm-13 cells (setting [4])) was under 10 nM throughout.

`CCCNc1nc(Nc2ccc3cn[nH]c3c2)ncc1C#CCCCNC(=O)[C@H](C)N(C)C(=O)/C=C/CN(C)C` [Compound 21-53, (S,E)-N-(1-((5-(2-((1H-indazol-6-yl)amino)-4-(propylamino)pyrimidin-5-yl)-4-pentyn-1-yl)amino)-1-oxopropan-2-yl)-4-(dimethylamino)-N-methyl-2-butenamide]: the IC50 in test [1] (FLT3 (WT)) was under 10 nM; in the test on MV4-11 cells (MV4-11, MV4-11 cell), under 10 nM; in the test on Molm-13 cells (MOLM-13, MOLM13 cell), under 10 nM.
